SMILES strings stand for the structures. pIC50: −log10 of the molar value. Entries after “also recorded” stand apart in the source; their conditions may differ.

One data set relates to HIV-1. Nature of the data set: Inhibition of HIV-1 replication in cultured macrophages (Table I). The format is cell-based. Conditions: Human immunodeficiency virus 1, Macrophage; 50% inhibition of viral growth, RT or p24, macrophages. As to the method:
A quantitative measurement of the activity of the compounds of the invention to block the replication of HIV-1 in non-dividing cells can be determined by culture of a macrophage-tropic strain of HIV-1 on peripheral blood-derived macrophages. The cells are cultured for 5-6 days prior to infection in a medium consisting of DMEM supplemented with 10% type A/B human serum and 200 U/ml Macrophage Colony Stimulating Factor, with half the medium changed after 3 days, to reach a density of about 10^6 cells per 5 ml well. A macrophage-tropic viral stock may be grown on these cells. The concentration of infectious particles in the stock is estimated by measurement of p24 antigen concentration.
To test the effect of compounds of the invention on HIV- 1 infection in the above-described culture system, the medium is removed and replaced with medium containing HIV-1 at a concentration of 1 ng of p24 (10^4 TCID50 /ml (TCID=tissue culture infectious doses)) and a known concentration of the compound of the invention (the inhibitor). After 24 hours, the cultures are washed to remove non-adherent virus and the culture is re-fed with medium containing the inhibitor at the desired concentration. The amount of replication of HIV-1 is estimated by an assay of the reverse transcriptase activity or by an assay of the concentration of p24 antigen in the culture medium every 2-3 days throughout the post-infection period. In a preferred embodiment the anti-HIV potency of the candidate drug is measured by comparison of the concentration of reverse transcriptase (RT) or of p24 antigen in the medium of the treated and control cultures at the time of the peak of these values in non-treated control cultures, that is about day 5 or 6 post-infection. Repetition at various levels of inhibitor allows for the calculation of the concentration of inhibitor that achieves 50% inhibition of viral growth, IC50. Table I discloses the IC50 of various inhibitors.

A further data set has as its system HIV-1ADA. Nature of the data set: RT activity in supernatant of HIV-1ADA-infected mitogen-stimulated peripheral blood leukocytes. The format is cell-based, HIV-1ADA in human PBMC. As to the method:
PBMCs were purified by Ficoll-Hypaque centrifugation and activated by 10 μg/ml PHA-P (Sigma) and 20 U/ml recombinant human IL-2 (rhIL-2) in RPMI 1640 supplemented with 10% FBS (HyClone). After 24 h incubation, cells were washed and inoculated with HIV-1ADA in RPMI 1640 supplemented with 10% FBS. After a 2 h adsorption, free virus was washed away and cells were cultured in RPMI 1640 supplemented with 10% FBS and 20 U/ml rhIL-2.
For the reverse transcriptase (RT) assay, 10 μl of culture supernatant was added to 40 μl of reaction mixture (final composition was 50 mM Tris-HCl, pH 7.8; 20 mM KCl; 5 mM MgCl2; 1 mM DTT; 0.1% Triton X-100; 0.2 OD/ml polyA; 0.2 OD/ml oligo(dT)12-18; and 40 μCi/ml ^3 H-dTTP (76 Ci/mmol, DuPont) and incubated 2 hr at 37° C. 5 μl of the reaction mixture was then spotted onto the DE 81 (Whatman) paper. Paper was air dried and washed 5 times with 5% Na2 HPO4, followed by rinsing with distilled water. After air drying, paper was put on a Flexi Filter plate (Packard), covered with scintillation fluid and counted in a Top Count Microplate Counter (Packard). Results are expressed as counts per minute in 1 ml of supernatant (cpm/ml).

The next data set deals with T1, reverse transcriptase (HIV-1 M:B_HXB2R, UniProt P04585).
T1 construct: infection experiments used HIV-1 ADA virus supernatant
Nature of the data set: Inhibition of reverse transcriptase. Conditions: data not shown. The data set is classed as biochemical.

For data set [1] the following is noted: Table IV; measured in a 25 gr mouse.
Experimental: Standard addition curves for each test compound were constructed by adding increased amounts of drug to mouse or human A^+ plasma (Long Island Blood Services; Melville, N.Y.). […] The eluted sample was reduced to dryness in a rotary evaporator and resuspended in 1.0 ml Buffer A.
Female ND4 Swiss Webster mice (21-24 g) were obtained from Harlan Sprague Dawley (Indianapolis, Ind.) and randomly placed in groups of five in cages with free access to food and water. […] The other CNI compounds were administered intraperitoneally or by oral gavage as a solution in water titrated with sufficient HCl to dissolve the drug. At various time points, ranging from 5 min to 4 days, a single group of animals was euthanized by carbon dioxide inhalation and bled by cardiac puncture using heparin as an anticoagulant. The blood from the five mice in the group was pooled and centrifuged at 14000×g for 10 min. The volume of plasma was measured, and equal volume of Buffer A added, and the mixture extracted and analyzed as described above, except that the dried eluates were resuspended in 200 μl Buffer A and 100 μl was injected onto the high performance liquid chromatography (HPLC) system.
The area under the plasma concentration-time curve (AUC) was determined, and bioavailability was measured as AUCoral /AUCi.p.. […] The volume of distribution (VD) was calculated as dose/B, and the total clearance rate (Cltot) calculated as β*VD. Cmax and tmax are the maximal plasma concentration and time of this measurement, respectively.

What is called pIC50 is the IC50 on a negative log10 scale, so that one unit is a factor of ten. A low value points to a large IC50. For the molecule `CC(=O)c1cc(Nc2cc(C)[n+](C)c(N)n2)cc(C(C)=O)c1.[I-]` [Compound No. 2, 2-amino-4-(3,5-diacetylphenyl)amino-1,6-dimethylpyrimidinium iodide], the pIC50 in the data set on HIV-1 is 9.00. The “reduction in viral output” value in the data set on HIV-1ADA (1 and 10 μM, lower MOI (1 ng p24/10^6 cells), FIG. 3B) is ~2 fold. Besides, in the data set with HIV-1ADA (actively dividing cell populations, FIG. 3), the “anti-viral effect on activated PBLs / replicating cells” value was “much less expressed in these actively dividing cell populations; also recorded: No anti-viral effect was detected”. Moreover, the “effect on viral production” value in the data set on HIV-1ADA (up to 10 μM, higher MOI (10 ng p24/10^6 cells), FIG. 3A) is reported as “only a marginal effect on viral production”. For the same molecule, on reverse transcriptase, the “inhibition of reverse transcriptase” value is on record as “does not inhibit reverse transcriptase”. In addition, in data set [1], the Clearance was determined as 35.35 mL/min.

(Values after patent US5840893A, “Compounds for treating infectious diseases” (priority 1996, dated 1998).)
